Two molecules from publication PMC11123773, “Identification of New Substrates and Inhibitors of Human CYP2A7” (Molecules, 2024) can be followed below.

In data set [1] the target is T1, CYP2A6*1 (Homo sapiens, UniProt P11509).
T1 sequence (P11509 1-494): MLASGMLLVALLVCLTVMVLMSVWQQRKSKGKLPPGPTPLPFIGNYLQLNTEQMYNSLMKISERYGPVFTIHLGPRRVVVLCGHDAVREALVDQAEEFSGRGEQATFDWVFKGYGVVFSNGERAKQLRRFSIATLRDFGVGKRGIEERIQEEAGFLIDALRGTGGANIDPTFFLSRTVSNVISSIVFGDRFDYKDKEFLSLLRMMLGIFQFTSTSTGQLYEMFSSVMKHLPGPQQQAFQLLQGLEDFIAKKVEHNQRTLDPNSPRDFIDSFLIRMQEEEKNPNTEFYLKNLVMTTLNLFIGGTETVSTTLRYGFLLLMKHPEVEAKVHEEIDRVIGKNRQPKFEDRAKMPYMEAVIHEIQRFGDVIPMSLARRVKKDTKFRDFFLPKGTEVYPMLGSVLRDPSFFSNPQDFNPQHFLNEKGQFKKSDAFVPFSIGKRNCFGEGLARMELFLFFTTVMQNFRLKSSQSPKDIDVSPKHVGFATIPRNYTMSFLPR
The data set is described as follows: Diclofenac biotransformation with enzyme bags, LC-MS analysis of hydroxydiclofenac. It is filed as biochemical. Also noted: expressed in transfected cells; host or cells: Schizosaccharomyces pombe strain RAJ122 (pREP1-CYP2A6*1 in CAD62), permeabilized cells (enzyme bags). As to conditions: by CYP2A6*1; diclofenac 100 µM. As for the experimental part: (§1) This was performed as described previously with slight modifications. Briefly, fission yeast cells were cultured on EMM plates with 5 µM thiamine for 3 days at 30 °C. A single yeast colony was then transferred to a 10 mL liquid culture of EMM without thiamine and cultured at 30 °C and 230 rpm for 36 h. As the recombinant expression of the human enzymes is controlled by the strong endogenous nmt1 promoter, all subsequent cultures were cultured in the absence of thiamine to keep the promoter in an active state. For each activity assay, 5 × 10^7 cells (stationary growth phase) were transferred to 1.5 mL Eppendorf tubes (Axygen; Silicon Valley, USA), pelleted, and incubated in 1 mL of 0.3% Triton-X100 in Tris-KCl buffer (200 mM KCl, 100 mM Tris-HCl pH 7.8) at room temperature for 60 min at 150 rpm for permeabilization. After three washes with 1 mL NH4HCO3 buffer (50 mM, pH 7.8), cells were resuspended in phosphate buffer (pH 7.4) and then the substrate and the NADPH regeneration system were added to a total volume of 50 µL. The samples were incubated at 37 °C and 1000 rpm for 3 h. For LC-MS analysis, the reaction mixture was extracted with an equal amount of ethyl acetate by centrifugation, and the supernatants were stored at −20 °C until use.
(§2) Analytical procedures were performed on an Agilent HPLC/microTOF-Q II instrument equipped with a Kromasil 100-5-C18 (dimensions 4.6 × 250 mm). […]

Data set [2] has as its target T2, CYP2A7*1 (Homo sapiens, UniProt P20853).
T2 sequence (P20853 1-494): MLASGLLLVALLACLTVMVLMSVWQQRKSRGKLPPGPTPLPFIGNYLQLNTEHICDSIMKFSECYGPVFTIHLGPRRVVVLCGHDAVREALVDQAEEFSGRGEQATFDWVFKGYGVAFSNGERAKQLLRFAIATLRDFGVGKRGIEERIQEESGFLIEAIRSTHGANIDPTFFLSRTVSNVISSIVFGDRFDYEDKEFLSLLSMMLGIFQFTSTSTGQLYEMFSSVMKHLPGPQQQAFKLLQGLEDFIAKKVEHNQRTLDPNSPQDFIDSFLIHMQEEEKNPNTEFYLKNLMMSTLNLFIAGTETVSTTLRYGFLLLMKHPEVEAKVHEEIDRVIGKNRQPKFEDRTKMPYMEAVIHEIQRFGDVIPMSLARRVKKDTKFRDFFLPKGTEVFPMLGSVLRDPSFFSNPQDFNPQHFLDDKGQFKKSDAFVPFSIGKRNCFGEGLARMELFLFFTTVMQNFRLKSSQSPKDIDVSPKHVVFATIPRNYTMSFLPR
Described as above. As to conditions: by CYP2A7*1; diclofenac 100 µM. Also on record: expressed in transfected cells; host or cells: Schizosaccharomyces pombe strain RAJ127 (pREP1-CYP2A7*1 in CAD62), permeabilized cells (enzyme bags). It is filed as biochemical. The protocol: as §1, §2

For data set [3], the target named is T3, CYP2A7-WT (Homo sapiens, UniProt P20853, D169E/H274R/R311C/V479G).
T3 sequence (P20853 1-494 D169E/H274R/R311C/V479G): T2 sequence (P20853 1-494) with D169E, H274R, R311C, V479G
The data set is described as above. In kind it is biochemical. Also noted: expressed in transfected cells; host or cells: Schizosaccharomyces pombe strain AA01 (pREP1-CYP2A7-WT in CAD62), permeabilized cells (enzyme bags). Conditions: by CYP2A7-WT; diclofenac 100 µM. The protocol: as §1, §2

Data set [4] deals with T3, CYP2A7-WT. Conditions: by CYP2A7-WT; nicotine 250 µM. The protocol:
as §1
(§3) An Agilent HPLC/microTOF-Q II instrument equipped with a LiChrospher 100 RP-18 column was used to carry out all analytical procedures. The mobile phase that we used was a mixture of water with 0.05% formic acid as phase A and 100% acetonitrile as B, run at a constant flow of 0.3 mL/min for 45 min. The gradient used was 0–20 min (80% A: 20% B to 80% B), 20–30 min (100% B), 30–35 min again (100% B), and 35–45 min (80% A: 20% B). We used positive electrospray ionization mode at a capillary voltage of 4.5 kV for mass spectrometry.

Data set [5] has as its target T1, CYP2A6*1. As to conditions: by CYP2A6*1; nicotine 250 µM. The protocol:
as §1, §3

The target of data set [6] is T2, CYP2A7*1. As to conditions: by CYP2A7*1; nicotine 250 µM. The protocol: as §1, §3

Numbering of substitutions follows the chain as printed.

Regarding `O=C(O)Cc1ccccc1Nc1c(Cl)cccc1Cl` [diclofenac], the “Metabolization of diclofenac (hydroxydiclofenac formation)” value on CYP2A6*1 [1], on CYP2A7*1 [2] and at CYP2A7-WT [3] was “produced a diclofenac metabolite that had the mass of hydroxydiclofenac” each time.

`CN1CCC[C@H]1c1cccnc1` [nicotine]: the “Metabolization of nicotine to the nicotine iminium ion” value at CYP2A7-WT [4] is on record as “no nicotine metabolite was found”; at CYP2A6*1 [5], “confirmed the metabolization”; on CYP2A7*1 [6], “no nicotine metabolite was found”.
